This is an account of results in ChEMBL document CHEMBL4118108, “UNC-51-like Kinase 1: From an Autophagic Initiator to Multifunctional Drug Target” (J Med Chem, 2018).

The subject of one assay is MDA-MB-231. Put plainly: Antiproliferative activity against human MDA-MB-231 cells by MTT assay. The class given is functional, cell-based.
For assay [1], the target named is T1, Serine/threonine-protein kinase ULK2 (Homo sapiens, UniProt Q8IYT8).
T1 sequence (Q8IYT8 whole entry): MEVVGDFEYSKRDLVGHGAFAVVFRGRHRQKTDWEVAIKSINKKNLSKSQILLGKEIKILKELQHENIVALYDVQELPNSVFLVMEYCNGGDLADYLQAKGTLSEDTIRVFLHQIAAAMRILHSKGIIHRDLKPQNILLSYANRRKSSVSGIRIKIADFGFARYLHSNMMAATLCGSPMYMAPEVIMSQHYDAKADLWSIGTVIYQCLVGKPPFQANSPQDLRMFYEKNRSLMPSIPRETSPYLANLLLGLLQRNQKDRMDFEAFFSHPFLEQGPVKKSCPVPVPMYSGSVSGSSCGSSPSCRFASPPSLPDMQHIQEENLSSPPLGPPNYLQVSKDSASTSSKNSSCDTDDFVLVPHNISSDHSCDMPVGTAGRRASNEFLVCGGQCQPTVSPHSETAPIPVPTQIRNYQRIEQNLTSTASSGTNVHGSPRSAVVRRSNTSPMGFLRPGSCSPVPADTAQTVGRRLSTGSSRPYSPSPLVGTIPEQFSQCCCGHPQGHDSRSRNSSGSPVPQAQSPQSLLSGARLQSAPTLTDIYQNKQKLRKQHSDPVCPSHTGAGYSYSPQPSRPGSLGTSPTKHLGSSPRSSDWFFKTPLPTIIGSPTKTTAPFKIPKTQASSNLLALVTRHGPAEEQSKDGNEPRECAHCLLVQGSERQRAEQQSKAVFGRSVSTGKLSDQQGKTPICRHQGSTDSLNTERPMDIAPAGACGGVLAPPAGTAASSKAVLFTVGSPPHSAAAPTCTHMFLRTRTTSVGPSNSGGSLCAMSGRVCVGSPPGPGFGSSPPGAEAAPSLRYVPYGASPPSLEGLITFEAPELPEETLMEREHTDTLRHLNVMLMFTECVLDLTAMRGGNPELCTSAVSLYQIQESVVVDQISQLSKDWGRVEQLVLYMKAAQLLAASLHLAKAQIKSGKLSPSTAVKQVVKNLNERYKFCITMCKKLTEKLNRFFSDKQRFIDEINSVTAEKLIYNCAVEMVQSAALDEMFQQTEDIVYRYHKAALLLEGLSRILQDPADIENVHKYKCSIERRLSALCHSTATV
Put plainly: Inhibition of GST-tagged ULK2 (unknown origin).

Molecules are shown by their SMILES.

Consider `CC(C)CN(CC(=O)N1CCN(CC(OCc2ccc3ccccc3c2)c2ccc(Cl)cc2Cl)CC1)CC(C)C` (configuration not stated), for which half-maximal inhibition in the assay with MDA-MB-231 (IC50) was put at 1660 nM. This lies in the single-digit micromolar range.

With `CNC(=O)c1ccccc1Oc1nc(Nc2cc(OC)c(OC)c(OC)c2)ncc1Br`, the IC50 in assay [1] was 711 nM.

As usually defined, the IC50 is the concentration needed to halve the response being measured. A higher IC50 goes with weaker potency.
